Measured values as given in ChEMBL document CHEMBL2440076, “New triarylpyrazoles as broad-spectrum anticancer agents: design, synthesis, and biological evaluation” (Eur J Med Chem, 2013).

Experiments:
[1] = system: NCI-H226; assay: Growth inhibition of human NCI-H226 cells assessed as cell growth at 10 uM after 48 hrs by sulforhodamine B assay; assay type: functional; conditions: NCI-H226, 48 h, read-out: Activity
[2] = system: LOX IMVI; assay: Growth inhibition of human LOXIMVI cells assessed as cell growth at 10 uM after 48 hrs by sulforhodamine B assay; assay type: functional; conditions: read-out: Activity
[3] = Growth inhibition of human NCI-ADR-RES cells assessed as cell growth at 10 uM after 48 hrs by sulforhodamine B assay; assay type: functional; conditions: read-out: Activity
[4] = system: UACC-257; assay: Growth inhibition of human UACC257 cells assessed as cell growth at 10 uM after 48 hrs by sulforhodamine B assay; assay type: functional; conditions: UACC-257, 48 h, read-out: Activity
[5] = system: NCI-H460; assay: Growth inhibition of human NCI-H460 cells assessed as cell growth at 10 uM after 48 hrs by sulforhodamine B assay; assay type: functional; conditions: NCI-H460, 48 h, read-out: Activity
[6] = system: MCF7; assay: Growth inhibition of human MCF7 cells assessed as cell growth at 10 uM after 48 hrs by sulforhodamine B assay; assay type: functional; conditions: MCF7, 48 h, read-out: Activity
[7] = system: HCT-116; assay: Growth inhibition of human HCT116 cells assessed as cell growth at 10 uM after 48 hrs by sulforhodamine B assay; assay type: functional; conditions: HCT-116, 48 h, read-out: Activity
[8] = system: HL-60(TB); assay: Growth inhibition of human HL-60(TB) cells assessed as cell growth at 10 uM after 48 hrs by sulforhodamine B assay; assay type: functional; conditions: HL-60, 48 h, read-out: Activity
[9] = system: IGROV-1; assay: Growth inhibition of human IGROV1 cells assessed as cell growth at 10 uM after 48 hrs by sulforhodamine B assay; assay type: functional; conditions: IGROV-1, 48 h, read-out: Activity
[10] = system: CCRF-CEM; assay: Growth inhibition of human CCRF-CEM cells assessed as cell growth at 10 uM after 48 hrs by sulforhodamine B assay; assay type: functional; conditions: read-out: Activity
[11] = system: COLO 205; assay: Growth inhibition of human COLO205 cells assessed as cell growth at 10 uM after 48 hrs by sulforhodamine B assay; assay type: functional; conditions: COLO 205, 48 h, read-out: Activity
[12] = system: RXF 393; assay: Growth inhibition of human RXF393 cells assessed as cell growth at 10 uM after 48 hrs by sulforhodamine B assay; assay type: functional; conditions: RXF 393, 48 h, read-out: Activity
[13] = system: OVCAR-3; assay: Growth inhibition of human OVCAR3 cells assessed as cell growth at 10 uM after 48 hrs by sulforhodamine B assay; assay type: functional; conditions: OVCAR-3, 48 h, read-out: Activity
[14] = system: NCI-H522; assay: Growth inhibition of human NCI-H522 cells assessed as cell growth at 10 uM after 48 hrs by sulforhodamine B assay; assay type: functional; conditions: NCI-H522, 48 h, read-out: Activity
[15] = system: MOLT-4; assay: Growth inhibition of human MOLT4 cells assessed as cell growth at 10 uM after 48 hrs by sulforhodamine B assay; assay type: functional; conditions: MOLT-4, 48 h, read-out: Activity
[16] = system: HCT-15; assay: Growth inhibition of human HCT15 cells assessed as cell growth at 10 uM after 48 hrs by sulforhodamine B assay; assay type: functional; conditions: HCT-15, 48 h, read-out: Activity
[17] = system: SF-539; assay: Growth inhibition of human SF539 cells assessed as cell growth at 10 uM after 48 hrs by sulforhodamine B assay; assay type: functional; conditions: SF-539, 48 h, read-out: Activity
[18] = system: A549; assay: Growth inhibition of human A549/ATCC cells after 48 hrs by sulforhodamine B assay; assay type: functional; conditions: A549, 48 h
[19] = system: Malme-3M; assay: Growth inhibition of human MALME-3M cells after 48 hrs by sulforhodamine B assay; assay type: functional
[20] = system: SF-268; assay: Growth inhibition of human SF268 cells after 48 hrs by sulforhodamine B assay; assay type: functional; conditions: SF-268, 48 h; for CC50: read-out: LC50 (the source's name)
[21] = system: SK-OV-3; assay: Growth inhibition of human SKOV3 cells after 48 hrs by sulforhodamine B assay; assay type: functional; conditions: SK-OV-3, 48 h; for CC50: read-out: LC50 (the source's name)
[22] = system: HCT-116; assay: Growth inhibition of human HCT116 cells after 48 hrs by sulforhodamine B assay; assay type: functional; conditions: HCT-116, 48 h; for CC50: read-out: LC50 (the source's name)
[23] = Growth inhibition of human Hs 578T cells after 48 hrs by sulforhodamine B assay; assay type: functional; conditions: for CC50: read-out: LC50 (the source's name)
[24] = system: HOP-92; assay: Growth inhibition of human HOP92 cells after 48 hrs by sulforhodamine B assay; assay type: functional, cell-based; conditions: HOP-92, 48 h
[25] = system: NCI-H460; assay: Growth inhibition of human NCI-H460 cells after 48 hrs by sulforhodamine B assay; assay type: functional; conditions: NCI-H460, 48 h
[26] = system: MOLT-4; assay: Growth inhibition of human MOLT4 cells after 48 hrs by sulforhodamine B assay; assay type: functional; conditions: MOLT-4, 48 h; for CC50: read-out: LC50 (the source's name)
[27] = system: OVCAR-3; assay: Growth inhibition of human OVCAR3 cells after 48 hrs by sulforhodamine B assay; assay type: functional, cell-based; conditions: OVCAR-3, 48 h; for CC50: read-out: LC50 (the source's name)
[28] = Growth inhibition of human NCI-ADR-RES cells after 48 hrs by sulforhodamine B assay; assay type: functional; conditions: for CC50: read-out: LC50 (the source's name)
[29] = system: NCI-H226; assay: Growth inhibition of human NCI-H226 cells after 48 hrs by sulforhodamine B assay; assay type: functional; conditions: NCI-H226, 48 h; for CC50: read-out: LC50 (the source's name)
[30] = system: PC-3; assay: Growth inhibition of human PC3 cells after 48 hrs by sulforhodamine B assay; assay type: functional, cell-based; conditions: PC-3, 48 h; for CC50: read-out: LC50 (the source's name)
[31] = system: SN12C; assay: Growth inhibition of human SN12C cells after 48 hrs by sulforhodamine B assay; assay type: functional; conditions: for CC50: read-out: LC50 (the source's name)
[32] = system: NCI-H322M; assay: Growth inhibition of human NCI-H322M cells after 48 hrs by sulforhodamine B assay; assay type: functional; conditions: for CC50: read-out: LC50 (the source's name)
[33] = system: DU-145; assay: Growth inhibition of human DU145 cells after 48 hrs by sulforhodamine B assay; assay type: functional; conditions: DU-145, 48 h

Cc1cc(C(=O)Nc2cccc(-n3cc(-c4ccncc4)c(-c4ccc(Cl)c(O)c4)n3)c2)ccc1Br
growth at 10 µM [1]: 101% | growth at 10 µM [2]: 86.4% | growth at 10 µM [3]: 99.7% | growth at 10 µM [4]: 95.9% | growth at 10 µM [5]: 108% | growth at 10 µM [6]: 85.4% | growth at 10 µM [7]: 94.4% | growth at 10 µM [8]: 172% | growth at 10 µM [9]: 101% | growth at 10 µM [10]: 87.2% | growth at 10 µM [11]: 102% | growth at 10 µM [12]: 91% | growth at 10 µM [13]: 104% | growth at 10 µM [14]: 95.2% | growth at 10 µM [15]: 76.1% | growth at 10 µM [16]: 97.4% | growth at 10 µM [17]: 95.5%

O=C(Nc1cccc(-n2cc(-c3ccncc3)c(-c3ccc(Cl)c(O)c3)n2)c1)Nc1ccc(Cl)c(C(F)(F)F)c1
GI50 [18]: 927 nM | LC50 (concentration killing 50% of starting cells) [18]: > 32500 nM | TGI [18]: 5090 nM | growth at 10 µM [1]: 3.43% | GI50 [19]: 576 nM | LC50 (concentration killing 50% of starting cells) [19]: 9580 nM | TGI [19]: 1650 nM | GI50 [20]: 1060 nM | TGI [20]: 6980 nM | CC50 [20]: > 32500 nM | growth at 10 µM [2]: -75.8% | growth at 10 µM [3]: -16.9% | GI50 [21]: 1340 nM | TGI [21]: 14900 nM | CC50 [21]: > 32500 nM | growth at 10 µM [4]: -54% | GI50 [22]: 998 nM | TGI [22]: 3940 nM | CC50 [22]: > 32500 nM | GI50 [23]: 797 nM | TGI [23]: 11200 nM | CC50 [23]: > 32500 nM | GI50 [24]: 376 nM | IC50 [24]: 380 nM | LC50 [24]: 13500 nM | TGI [24]: 1460 nM | growth at 10 µM [5]: -43.7% | GI50 [25]: 1010 nM | LC50 [25]: > 32500 nM | TGI [25]: 4000 nM | growth at 10 µM [6]: -16.6% | growth at 10 µM [7]: -51% | growth at 10 µM [8]: -11.2% | growth at 10 µM [9]: 10.4% | GI50 [26]: 777 nM | TGI [26]: 2930 nM | CC50 [26]: > 32500 nM | growth at 10 µM [10]: -13.8% | GI50 [27]: 830 nM | IC50 [27]: 830 nM | TGI [27]: 2090 nM | CC50 [27]: > 32500 nM | GI50 [28]: 844 nM | TGI [28]: 2750 nM | CC50 [28]: > 32500 nM | growth at 10 µM [11]: -60.2% | GI50 [29]: 1350 nM | TGI [29]: > 32500 nM | CC50 [29]: > 32500 nM | growth at 10 µM [12]: -76% | IC50 [30]: 590 nM | CC50 [30]: > 32500 nM | GI50 [31]: 1120 nM | TGI [31]: 17100 nM | CC50 [31]: > 32500 nM | GI50 [32]: 1090 nM | TGI [32]: 4480 nM | CC50 [32]: 24700 nM | growth at 10 µM [13]: -43% | growth at 10 µM [14]: -30% | growth at 10 µM [15]: -22.1% | growth at 10 µM [16]: 1.04% | growth at 10 µM [17]: -26.1% | GI50 [33]: 1130 nM | LC50 [33]: 25100 nM | TGI [33]: 4630 nM

O=C(Nc1cccc(-n2cc(-c3ccncc3)c(-c3ccc(Cl)c(O)c3)n2)c1)Nc1ccc(Cl)c(Cl)c1
GI50 [18]: 1010 nM | LC50 (concentration killing 50% of starting cells) [18]: > 32500 nM | TGI [18]: > 32500 nM | growth at 10 µM [1]: 24.7% | GI50 [19]: 1190 nM | LC50 (concentration killing 50% of starting cells) [19]: > 32500 nM | TGI [19]: 8100 nM | GI50 [20]: 1490 nM | TGI [20]: 10900 nM | CC50 [20]: > 32500 nM | growth at 10 µM [2]: 21.9% | growth at 10 µM [3]: 20.9% | GI50 [21]: 1200 nM | TGI [21]: > 32500 nM | CC50 [21]: > 32500 nM | growth at 10 µM [4]: -17.3% | GI50 [22]: 1190 nM | TGI [22]: 5730 nM | CC50 [22]: > 32500 nM | GI50 [23]: 785 nM | TGI [23]: 3150 nM | CC50 [23]: > 32500 nM | GI50 [24]: 679 nM | IC50 [24]: 680 nM | LC50 [24]: > 32500 nM | TGI [24]: 1910 nM | growth at 10 µM [5]: 6.5% | GI50 [25]: 993 nM | LC50 [25]: 24200 nM | TGI [25]: 3570 nM | growth at 10 µM [6]: 5.74% | growth at 10 µM [7]: 11.1% | growth at 10 µM [8]: -6.98% | growth at 10 µM [9]: 28.7% | GI50 [26]: 1380 nM | TGI [26]: > 32500 nM | CC50 [26]: > 32500 nM | growth at 10 µM [10]: 13.7% | GI50 [27]: 1050 nM | IC50 [27]: 1050 nM | TGI [27]: 3150 nM | CC50 [27]: > 32500 nM | GI50 [28]: 2740 nM | TGI [28]: > 32500 nM | CC50 [28]: > 32500 nM | growth at 10 µM [11]: 30.2% | GI50 [29]: 1510 nM | TGI [29]: > 32500 nM | CC50 [29]: > 32500 nM | growth at 10 µM [12]: 4.46% | GI50 [30]: 834 nM | IC50 [30]: 830 nM | TGI [30]: > 32500 nM | CC50 [30]: > 32500 nM | GI50 [31]: 1310 nM | TGI [31]: > 32500 nM | CC50 [31]: > 32500 nM | GI50 [32]: 2890 nM | TGI [32]: > 32500 nM | CC50 [32]: > 32500 nM | growth at 10 µM [13]: -4.74% | growth at 10 µM [14]: -6.8% | growth at 10 µM [15]: 7.64% | growth at 10 µM [16]: 19.8% | growth at 10 µM [17]: 37% | GI50 [33]: 1500 nM | LC50 [33]: > 32500 nM | TGI [33]: > 32500 nM
